Reference: patent US20190000905A1, “Gynostemma pentaphyllum fermented extracts comprising Saponins as an active functional food ingredient and preparation method thereof” (BTC Co., Ltd., priority 2017, published 2019)

Assays:
Format in all cases: cell-based
[1] = test system: FAS (fatty acid synthase); assay: Effect of saponins of the extract on FAS expression in 3T3-L1 cells; conditions: FIG. 1 and FIG. 2
From the text: (§1) The effect of the saponins of the extract according to the present disclosure on the activity of AMPK, ACC and FAS in 3T3-L1 cells is shown in FIG. 1 and FIG. 2. AMPK is an enzyme involved in fatty acid oxidation, inhibition of adipocyte differentiation, etc. It is involved in inhibition of fatty acid biosynthesis and fatty acid degradation by phosphorylating (inactivating) ACC through AMPK phosphorylation (p-AMPK). FAS (fatty acid synthase) plays a role of promoting fatty acid synthesis.

[2] = test system: fat accumulation; assay: Effect of saponins of the fermented extract on fat accumulation (FIG. 3); conditions: as compared to a control group
From the text: The effect of the saponins of the extract of fermented Gynostemma pentaphyllum according to the present disclosure on fat accumulation was investigated.

[3] = test system: ACC; assay: Effect of saponins of the extract on activity of ACC in 3T3-L1 cells (p-ACC); conditions: FIG. 1 and FIG. 2
From the text: as §1

[4] = test system: AMPK; assay: Effect of saponins of the extract on activity of AMPK in 3T3-L1 cells (p-AMPK); conditions: FIG. 1 and FIG. 2
From the text: as §1

`CC(C)=CCC[C@](C)(O)[C@H]1CC[C@]2(C)[C@@H]1[C@H](O)C[C@@H]1[C@@]3(C)CC[C@H](O[C@@H]4O[C@H](CO)[C@@H](O)[C@H](O)[C@H]4O[C@@H]4O[C@H](CO)[C@@H](O)[C@H](O)[C@H]4O)C(C)(C)[C@@H]3CC[C@]12C` [ginsenoside Rg3] was tested, and the “expression of FAS (fatty acid synthase)” value [1] was “inhibiting the expression of FAS”, the “inhibition of fat accumulation” value [2] was “exhibited an effect of inhibiting fat accumulation” and the “activation of p-ACC” value [3] was “activated p-AMPK and p-ACC in a concentration-dependent manner”. For the same molecule, the “activation of p-AMPK” value [4] was “activated p-AMPK and p-ACC in a concentration-dependent manner”.

`CC(C)=CCC[C@@](C)(O)[C@H]1CC[C@]2(C)[C@@H]1[C@H](O)C[C@@H]1[C@@]3(C)C[C@@H](O)[C@H](O[C@@H]4O[C@H](CO)[C@@H](O)[C@H](O)[C@H]4O[C@@H]4O[C@H](CO)[C@@H](O)[C@H](O)[C@H]4O)C(C)(C)[C@@H]3CC[C@]12C` [gypenoside LI] was tested, and the “expression of FAS (fatty acid synthase)” value [1] was “inhibiting the expression of FAS”, the “inhibition of fat accumulation” value [2] was “exhibited an effect of inhibiting fat accumulation” and the “activation of p-ACC” value [3] was “activated p-AMPK and p-ACC in a concentration-dependent manner”. For the same molecule, the “activation of p-AMPK” value [4] was “activated p-AMPK and p-ACC in a concentration-dependent manner”.

For `CC(C)=CCC[C@](C)(O)[C@H]1CC[C@]2(C)[C@@H]1[C@H](O)C[C@@H]1[C@@]3(C)C[C@@H](O)[C@H](O[C@@H]4O[C@H](CO)[C@@H](O)[C@H](O)[C@H]4O[C@@H]4O[C@H](CO)[C@@H](O)[C@H](O)[C@H]4O)C(C)(C)[C@@H]3CC[C@]12C` [gypenoside L], the “inhibition of fat accumulation” value [2] was “exhibited an effect of inhibiting fat accumulation”.
